Measurements published in ChEMBL document CHEMBL1201862, “PubChem BioAssay data set” (2004).
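Tested at 5 concentrations; 48 h exposure; 96-well plates; endpoints linearly interpolated, else capped at highest concentration. Abbreviation: GI50, concentration required for 50% inhibition of growth.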 The source made the active and inactive calls. No stated cut-off is given here; in the data, active = GI50 up to about 1.1 µM and inactive = higher.

Columns and labels:
Experiment in all cases: inhibition of tumour cell growth, NCI panel, 48 h
KM12 = system: KM12
RXF 393 = system: RXF 393
SNB-19 = system: SNB-19
SF-295 = system: SF-295
HL-60 = system: HL-60
HOP-92 = system: HOP-92
LOX IMVI = system: LOX IMVI
EKVX = system: EKVX
HCT-15 = system: HCT-15
UO-31 = system: UO-31
SW-620 = system: SW-620
SK-MEL-28 = system: SK-MEL-28
SNB-75 = system: SNB-75
IGROV-1 = system: IGROV-1
HCC 2998 = system: HCC 2998
NCI-H460 = system: NCI-H460
SR = system: SR
OVCAR-4 = system: OVCAR-4
UACC-62 = system: UACC-62
MDA-MB-231 = system: MDA-MB-231

| SMILES | GI50 (KM12) | GI50 (RXF 393) | GI50 (SNB-19) | GI50 (SF-295) | GI50 (HL-60) | GI50 (HOP-92) | GI50 (LOX IMVI) | GI50 (EKVX) | GI50 (HCT-15) | GI50 (UO-31) | GI50 (SW-620) | GI50 (SK-MEL-28) | GI50 (SNB-75) | GI50 (IGROV-1) | GI50 (HCC 2998) | GI50 (NCI-H460) | GI50 (SR) | GI50 (OVCAR-4) | GI50 (UACC-62) | GI50 (MDA-MB-231) |
| --- | --- | --- | --- | --- | --- | --- | --- | --- | --- | --- | --- | --- | --- | --- | --- | --- | --- | --- | --- | --- |
| Cc1ccc(S(=O)(=O)Nc2cccc(C)c2C)cc1 | 52.7 µM (inactive) | 19 µM (inactive) | > 100 µM (inactive) | 33.7 µM (inactive) | 32.2 µM (inactive) | 29.5 µM (inactive) | 62.5 µM (inactive) | 73.5 µM (inactive) | 41.1 µM | 30.8 µM (inactive) | 86.7 µM (inactive) | 30.4 µM (inactive) | 22.5 µM (inactive) | 82.4 µM (inactive) | > 100 µM (inactive) | 46.6 µM (inactive) | 52.5 µM (inactive) | 19.5 µM (inactive) | 66.1 µM (inactive) |  |
| Cc1c(-c2nc(N)c(C#N)c(N)c2C#N)c(=O)oc2ccccc12 | 68.4 µM (inactive) | > 100 µM (inactive) | > 100 µM (inactive) | 70 µM (inactive) | 63.5 µM (inactive) | > 100 µM (inactive) | 60.3 µM (inactive) | 68.1 µM (inactive) | 80.7 µM | > 100 µM (inactive) | 68.5 µM (inactive) | > 100 µM (inactive) | > 100 µM (inactive) | 9.46 µM (inactive) | > 100 µM (inactive) | > 100 µM (inactive) |  | > 100 µM (inactive) | > 100 µM (inactive) | > 100 µM (inactive) |
| CC(CO)(CBr)COC(=O)c1cc(Br)c(N)c(Br)c1 (centres undefined) | > 100 µM (inactive) |  | 54.7 µM (inactive) | 37.4 µM (inactive) | > 100 µM (inactive) | 20.4 µM (inactive) | > 100 µM (inactive) | 37.4 µM (inactive) | > 100 µM | 2.67 µM (inactive) | > 100 µM (inactive) | > 100 µM (inactive) |  | 33.9 µM (inactive) | > 100 µM (inactive) |  | 30.7 µM (inactive) | > 100 µM (inactive) | > 100 µM (inactive) | 37.1 µM (inactive) |
| COC(=O)/C=C(\S/C(=C(/c1ccccc1)n1cc(C(=O)OC)c(C(=O)OC)n1)c1ccccc1)C(=O)OC | 54.6 µM (inactive) | 13.6 µM (inactive) | 19.5 µM (inactive) | 53.8 µM (inactive) | 3.26 µM (inactive) |  | 8.17 µM (inactive) | 18.2 µM (inactive) | 11.6 µM | 2.24 µM (inactive) | 2.37 µM (inactive) | 20.7 µM (inactive) | 29.1 µM (inactive) | 17.7 µM (inactive) |  | 30.8 µM (inactive) | 11.6 µM (inactive) | 13 µM (inactive) | 30.5 µM (inactive) | 22 µM (inactive) |
| Brc1ccc(/N=N/c2ccc3ccccc3n2)cc1 | 62.2 µM (inactive) | 28.2 µM (inactive) | 15.9 µM (inactive) | 24.8 µM (inactive) | 18.7 µM (inactive) | 33.2 µM (inactive) |  | 17.6 µM (inactive) | 35.3 µM | 11.2 µM (inactive) | 82.6 µM (inactive) |  | 14.2 µM (inactive) | 21.4 µM (inactive) |  | 7.5 µM (inactive) |  |  | 15.6 µM (inactive) | > 10 µM (inactive) |
| CN(C)CCNC(=O)Cn1ccc(=O)c2c([N+](=O)[O-])cccc21 | > 100 µM (inactive) | > 100 µM (inactive) | > 100 µM (inactive) | > 100 µM (inactive) | > 100 µM (inactive) |  | > 100 µM (inactive) | > 100 µM (inactive) | > 100 µM | > 100 µM (inactive) | > 100 µM (inactive) | > 100 µM (inactive) | > 100 µM (inactive) | > 100 µM (inactive) | > 100 µM (inactive) | > 100 µM (inactive) | > 100 µM (inactive) | > 100 µM (inactive) | > 100 µM (inactive) | > 100 µM (inactive) |
| OCC1OC(n2cnc3c(Cl)nc(Nc4ccccc4)nc32)CC1O (centres undefined) | > 100 µM (inactive) | 57.1 µM (inactive) | > 100 µM (inactive) | > 100 µM (inactive) |  | 2.74 µM (inactive) | 19.2 µM (inactive) | 2.94 µM (inactive) | 20.8 µM | 18 µM (inactive) | > 100 µM (inactive) |  | 42.6 µM (inactive) | 25.4 µM (inactive) | 17.8 µM (inactive) | 49.9 µM (inactive) |  | 25.4 µM (inactive) | 40.5 µM (inactive) | 31.2 µM (inactive) |
| CC(C)[C@H](O)C(=O)N[C@H]1Cc2ccc3c(c2)[C@]24C5=C(N=C(O5)[C@H](C(C)C)NC1=O)c1nc(Cl)c(o1)-c1c(Cl)[nH]c5cccc(c15)-c1cccc2c1N[C@H]4O3 | 0.00607 µM (active) |  | 0.00644 µM (active) | 0.0167 µM (active) |  | 0.00693 µM (active) | 0.00392 µM (active) | 0.224 µM (active) | 0.0392 µM | 0.0457 µM (active) | 0.00671 µM (active) | 0.00718 µM (active) |  | 0.00342 µM (active) | 0.00879 µM (active) | 0.0119 µM (active) |  | 1.57 µM (inactive) |  | 0.015 µM (active) |
